Results: article PMC7692337, “Masked Phenolic-Selenium Conjugates: Potent and Selective Antiproliferative Agents Overcoming P-gp Resistance” (Pharmaceuticals, 2020)
Like-named read-outs stand apart in the source and are kept apart here.

Experiments:
[1] = system: SW1573 (non-small cell lung); experiment: Antiproliferative activity, NCI protocol; assay type: cell-based, human; conditions: Homo sapiens
Description: (§1) Organochalcogen derivatives prepared herein were evaluated in vitro as potential antiproliferative agents, using a panel of six human tumour cell lines: A549 (non-small cell lung), HBL-100 (breast), HeLa (cervix), SW1573 (non-small cell lung), as drug sensitive lines, T-47D (breast) and WiDr (colon) as drug resistant lines. In addition to precursors 2, 6, 7, 13, 14, 17, 19, ebselen and cisplatin (CDDP) were used as reference drugs. […] In both cases, the NCI protocol, with minor modifications, was followed; selected data, including the selectivity index (S.I.) can be found in Table 3 and full data in Supporting Information (Table S1).
(§2) The in vitro antiproliferative activity was assayed using minor modifications of the protocol of the National Cancer Institute (NCI) of the United States against the six human solid tumor cell and the non-tumor cell lines tested.

[2] = system: A549 (non-small cell lung); experiment: Antiproliferative activity, NCI protocol; assay type: cell-based, human
Description: as §1, §2

HeLa (cervix) = experiment: Antiproliferative activity, NCI protocol; assay type: cell-based, human
Description: as §1, §2

T-47D (breast) = experiment: Antiproliferative activity, NCI protocol; assay type: cell-based, human; conditions: Homo sapiens, T47D, read-out: GI50 T-47D (Breast)
Description: as §1, §2

WiDr (colon) = experiment: Antiproliferative activity, NCI protocol; assay type: cell-based, human; conditions: Homo sapiens, WiDr, read-out: GI50 WiDr (Colon)
Description: as §1, §2

HBL-100 (breast) = experiment: Antiproliferative activity, NCI protocol; assay type: cell-based, human
Description: as §1, §2

[3] = Free radical scavenging (DPPH method); conditions: 30 min incubation, absorbance at 515 nm, read-out: EC50 antiradical activity (DPPH)
Description: (§3) In vitro antioxidant properties of key unprotected phenolic derivatives were analyzed using two different methodologies: free radical scavenging capacity, using the DPPH method (2,2-diphenyl-1-picrylhydrazyl), a HAT (hydrogen atom transfer) procedure, widely-used for both natural and synthetic derivatives, and also the capacity for scavenging H2O2, one of the most common ROS in degenerative diseases, including cancer.
DPPH is a commercially-available stable free radical commonly used for in vitro testing of radical scavenging properties of antioxidants.
Reported methodology was used with minor modifications. To a 60 µM methanolic DPPH solution (1.17 mL), the antioxidant solution (5–7 different solutions, 30 µL) or solvent (control, 30 µL) were added. After 30 min. of incubation in the dark, absorbance was measured at 515 nm, and EC50 values were calculated.

SW1573 = experiment: P-glycoprotein assay, wild type line; assay type: cell-based; conditions: Homo sapiens, 48 h exposure
Description: (§4) This assay allows prediction of whether a certain chemotherapeutic agent could develop chemoresistance when behaving as a P-gp substrate, one of the most common efllux-pumps used for the extrusion of cell xenobiotics. For that purpose, a cell line-based assay was used, in particular the lung cancer cell line in its wild type (SW1573), and its variant overexpressing P-gp (Sw1573/Pgp). Moreover, compounds were tested in the presence and in the absence of verapamil, which is known to inhibit P-gp. Chemotherapeutic agents paclitaxel (PTX) and vinblastine (VB) are used herein as reference compounds. In this assay, the resistance factor (Rf) for a certain compound is defined as the ratio of GI50 in the cell line overexpressing P-gp and the wild one (Table 4), high values of Rf denoting that the compound behaves as a P-gp substrate, and thus, chemoresistance through this mechanism will probably take place.

SW1573/Pgp = experiment: P-glycoprotein assay, line overexpressing P-gp; assay type: cell-based, human; conditions: ratio between GI50 values in SW1573/PGP and SW1573 cells; for Rf w Verapamil: with verapamil; for Rf w/o Verapamil: without verapamil
Description: as §4

[4] = P-glycoprotein assay, line overexpressing P-gp; assay type: cell-based, human; conditions: human, 48 h exposure
Description: as §4

[5] = H2O2 scavenging (phenol red / horseradish peroxidase); conditions: At 50 µM
Description: as §3
Herein, following Bahorun’s methodology, in vitro levels of H2O2 were measured in an indirect fashion, by registering the H2O2-mediated oxidation of phenol red in the presence of horseradish peroxidase, to give a chromophore with a maximum absorption at 610 nm. Accordingly, in the presence of an antioxidant agent, there is an inverse correlation between the observed absorbance, and the scavenging properties. Table 2 depicts the H2O2-scavenging properties of compounds prepared herein, and tested at a final 50 µM concentration.
Reported methodology was used with minor modifications.

[6] = system: six human tumour cell lines (A549, HBL-100, HeLa, SW1573, T-47D, WiDr); experiment: Antiproliferative activity, panel of six human tumour cell lines; assay type: cell-based; conditions: summary over the tested tumour cell lines; highest tested concentration 100 µM
Description: as §1, §2

[7] = SW1573, read-out: GI50 SW1573 (Lung)
[8] = Homo sapiens, A549, read-out: GI50 A549 (Lung)
[9] = Homo sapiens, HeLa, read-out: GI50 HeLa (Cervix)
[10] = Homo sapiens, HBL-100, read-out: GI50 HBL-100 (Breast)
[11] = with verapamil, read-out: GI50 SW153 w Verapamil
[12] = without verapamil, read-out: GI50 SW1573 w/o Verapamil
[13] = SW1573, Table S1, read-out: GI50 SW1573 (Lung)
[14] = Homo sapiens, A549; read-out: GI50 A549 (Lung)
[15] = Homo sapiens, HeLa; read-out: GI50 HeLa (Cervix)
[16] = Homo sapiens, HBL-100; read-out: GI50 HBL-100 (Breast)
[17] = with verapamil (concentration not stated), with verapamil, read-out: GI50 SW1573/PGP w Verapamil
[18] = without verapamil, read-out: GI50 SW1573/PGP w/o Verapamil

Row | SMILES | GI50 [1, 7] | GI50 [2, 8] | GI50 (HeLa (cervix); [9]) | GI50 (T-47D (breast)) | GI50 (WiDr (colon)) | GI50 (HBL-100 (breast); [10]) | EC50 [3] | GI50 [1, 13] | GI50 [2, 14] | GI50 (HeLa (cervix); [15]) | GI50 (T-47D (breast); drug resistant line) | GI50 (WiDr (colon); drug resistant line) | GI50 (HBL-100 (breast); [16]) | further results
1 | O=C(O)CCC[Se][Se]CCCC(=O)O [Compound 14, 4,4′-Diselenobisbutyric acid] | > 100 µM | 46 ± 14 µM | 44 ± 13 µM | 50 ± 14 µM | 54 ± 6 µM | > 100 µM | – | – | – | – | – | – | – | –
2 | OCCc1ccc(O)c(O)c1 [HT, hydroxytyrosol, reference compound] | – | – | – | – | – | – | 13.4 ± 0.6 µM | – | – | – | – | – | – | –
3 | c1ccc(C[Se]CCc2ccc3c(c2)OCO3)cc1 [Compound 38, 1-Benzylseleno-2-(3’, 4’-methylenedioxyphenyl)ethane] | – | – | – | – | – | – | – | 27 ± 5 µM | 19 ± 2 µM | 5.2 ± 1 µM | 4.7 ± 1.2 µM | 14 ± 2 µM | 14 ± 3 µM | GI50 (SW1573; [11]): 15 ± 3 µM; GI50 (SW1573; [12]): 27 ± 2 µM; Rf w Verapamil (SW1573/Pgp): 1.6; Rf w/o Verapamil (SW1573/Pgp): 1.1; GI50 at 48 h [4, 17]: 25 ± 2 µM; GI50 at 48 h [4, 18]: 29 ± 0.2 µM
4 | O=C(CC[Se][Se]CCC(=O)NCCc1ccc(O)c(O)c1)NCCc1ccc(O)c(O)c1 [Compound 15, 3,3′-Diselenobis{N-[2′’-(3′’’,4′’’-dihydroxyphenyl)ethyl]propanamide}] | – | – | – | – | – | – | 7.8 ± 0.2 µM | 5.9 ± 1.3 µM | 5.4 ± 1.1 µM | 3.6 ± 1.1 µM | 39 ± 5 µM | 31 ± 7 µM | 29 ± 6 µM | GI50 (SW1573; [11]): 5 ± 0.7 µM; GI50 (SW1573; [12]): 3.3 ± 0.4 µM; % Scavenging of H2O2 [5]: 40.0 ± 3.1%; Rf w Verapamil (SW1573/Pgp): 1.1; Rf w/o Verapamil (SW1573/Pgp): 1.5; GI50 at 48 h [4, 17]: 5.3 ± 0.3 µM; GI50 at 48 h [4, 18]: 5 ± 0.1 µM
5 | NCCc1ccc(O)c(O)c1 [Dopamine, dopamine, reference compound] | – | – | – | – | – | – | 11.4 ± 1.2 µM | – | – | – | – | – | – | % Scavenging of H2O2 [5]: 46.1 ± 4.6%
6 | O=C(O)CC[Se][Se]CCC(=O)O [Compound 13, 3,3′-Diselenobispropanoic acid] | – | – | – | – | – | – | – | > 100 µM | 4.1 ± 0.1 µM | 18 ± 1 µM | 20 ± 8 µM | 5.6 ± 0.6 µM | 94 ± 8 µM | –
7 | O=c1c2ccccc2[se]n1CCc1ccc(O)c(O)c1 [Compound 26, N-[2′-(3′’,4′’-Dihydroxyphenyl)ethyl]-1,2-benzisoselenazole-3(2H)-one] | 21 ± 12 µM | 21 ± 7 µM | 21 ± 6 µM | 28 ± 6 µM | 30 ± 3 µM | 21 ± 4 µM | 7.8 ± 0.2 µM | – | – | – | – | – | – | GI50 over the tumour cell lines (range, bound or words) [6]: moderate antiproliferative properties
8 | c1cc2c(cc1CCC[Se][Se]CCCc1ccc3c(c1)OCO3)OCO2 [Compound 41, Bis[3-(3’, 4’-methylenedioxyphenyl)propyl]diselenide] | 37 ± 15 µM | 32 ± 8 µM | 31 ± 8 µM | 29 ± 5 µM | 29 ± 8 µM | 93 ± 10 µM | – | – | – | – | – | – | – | GI50 over the tumour cell lines (range, bound or words) [6]: only a moderate antiproliferative agent
9 | O=C(O)CSSCC(=O)O [Compound 6, Dithiodiacetic acid] | – | – | – | – | – | – | – | > 100 µM | > 100 µM | > 100 µM | > 100 µM | > 100 µM | > 100 µM | –
